Reference: patent US20250136568A1, “FUSED HETEROCYCLIC COMPOUNDS AS PI3KALPHA INHIBITORS” (Nanjing Zenshine Pharmaceuticals Co., Ltd., priority 2021, published 2025)
Read-outs that look alike come from different tables or passages of the source.

Legend:
Type in all cases: cell-based
[1] = test system: PI3Kα wide type cell line SK-BR-3; assay: Cell Proliferation IC50 Assay (CellTiter-Glo), SK-BR-3; conditions: SK-BR-3 (PI3Kα wild type), 72 hours, CellTiter-Glo, read-out: IC50 (μM) SK-BR-3
Method in brief: (§1)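 Cells were seeded and left overnight, then exposed to serially diluted compound (200-fold final dilution) for 72 h at 37 °C, 5% CO2. Viability was read by CellTiter-Glo luminescence. Percent inhibition and IC50 were calculated from the signal.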

[2] = test system: PI3Kα H1047R mutation cell line MDA-MB-453; assay: Cell Proliferation IC50 Assay (CellTiter-Glo), MDA-MB-453; conditions: read-out: IC50 (μM) MDA-MB-453
Method in brief: as §1

[3] = test system: PI3Kα H1047R mutation cell line T-47D; assay: Cell Proliferation IC50 Assay (CellTiter-Glo), T-47D; conditions: T47D (H1047R), 72 hours, CellTiter-Glo, read-out: IC50 (μM) T47D
Method in brief: as §1

[4] = Homo sapiens, MDA-MB-453 (H1047R), 72 hours, CellTiter-Glo
[5] = MDA-MB-453 (H1047R), 72 hours, CellTiter-Glo

Row | Compound | IC50 ([1]; Homo sapiens) | IC50 [2, 4] | IC50 ([3]; Homo sapiens, T47D, 72 h) | IC50 [1] | IC50 [2, 5] | IC50 [3] | IC50 ([2]; Homo sapiens, MDA-MB-453, 72 h) | IC50 ([3]; Homo sapiens)
1 | Cc1cc(C(C)Nc2ccccc2C(=O)O)c2oc(C3CCN(C(=O)OC(C)(C)C)CC3)cc(=O)c2c1 (stereo not drawn) [Example 13, 2-((1-(2-(1-(tert-butoxycarbonyl)piperidin-4-yl)-6-methyl-4-oxo-4H-chromen-8-yl)ethyl)amino)benzoic acid] | > 10 µM | 2.29 µM | 1.33 µM |  |  |  |  | 
2 | Cc1cc(C(C)Nc2ccccc2C(=O)O)c2oc(C3=CCN(C(=O)OC(C)(C)C)CC3)cc(=O)c2c1 (stereo not drawn) [Example 14, 2-((1-(2-(1-(tert-butoxycarbonyl)-1,2,3,6-tetrahydropyridin-4-yl)-6-methyl-4-oxo-4H-chromen-8-yl)ethyl)amino)benzoic acid] | > 10 µM | 1.27 µM | 1 µM |  |  |  |  | 
3 | Cc1cc(C(C)Nc2ccccc2C(=O)O)c2oc(C3CCNCC3)cc(=O)c2c1 (stereo not drawn) [Example 15, 2-((1-(6-methyl-4-oxo-2-(piperidin-4-yl)-4H-chromen-8-yl)ethyl)amino)benzoic acid] | > 10 µM | > 10 µM | > 10 µM |  |  |  |  | 
4 | Cc1cc(C(C)Nc2ccccc2C(=O)O)c2oc(C3CCN(c4ccccc4)CC3)cc(=O)c2c1 (stereo not drawn) [Example 18, 2-((1-(6-methyl-4-oxo-2-(1-phenylpiperidin-4-yl)-4H-chromen-8-yl)ethyl)amino)benzoic acid] | > 10 µM | 0.77 µM | 0.31 µM |  |  |  |  | 
5 | Cc1cc(C(C)Nc2ccccc2C(=O)O)c2oc(C3=CCN(c4ccccc4)CC3)cc(=O)c2c1 (stereo not drawn) [Example 19, 2-((1-(6-methyl-4-oxo-2-(1-phenyl-1,2,3,6-tetrahydropyridin-4-yl)-4H-chromen-8-yl)ethyl)amino)benzoic acid] | > 10 µM | 1.39 µM | 0.35 µM |  |  |  |  | 
6 | Cc1cc(C(C)Nc2ccccc2C(=O)O)c2oc(-c3ccc4c(c3)CN(C)C4=O)c(C)c(=O)c2c1 (stereo not drawn) [Example 20, 2-((1-(3,6-dimethyl-2-(2-methyl-1-oxoisoindolin-5-yl)-4-oxo-4H-chromen-8-yl)ethyl)amino)benzoic acid] | > 10 µM | 0.18 µM | 0.12 µM |  |  |  |  | 
7 | Cc1cc(C(C)Nc2ccc(Cl)nc2C(=O)O)c2oc(-c3ccc4c(c3)CN(C)C4=O)c(C)c(=O)c2c1 (stereo not drawn) [Example 22, 6-chloro-3-((1-(3,6-dimethyl-2-(2-methyl-1-oxoisoindolin-5-yl)-4-oxo-4H-chromen-8-yl)ethyl)amino)picolinic acid] | 5.07 µM | 0.63 µM | 0.72 µM |  |  |  |  | 
8 | CC(=O)N1CCC(c2cc(=O)c3cc(C)cc(C(C)Nc4ccccc4C(=O)O)c3o2)CC1 (stereo not drawn) [Example 28, 2-((1-(2-(1-acetylpiperidin-4-yl)-6-methyl-4-oxo-4H-chromen-8-yl)ethyl)amino)benzoic acid] | > 10 µM | 3.61 µM | 1.77 µM |  |  |  |  | 
9 | Cc1cc(C(C)Nc2ccccc2C(=O)O)c2oc(C3CCN(C(=O)C(F)(F)F)CC3)cc(=O)c2c1 (stereo not drawn) [Example 29, 2-((1-(6-methyl-4-oxo-2-(1-(2,2,2-trifluoroacetyl)piperidin-4-yl)-4H-chromen-8-yl)ethyl)amino)benzoic acid] | > 10 µM | > 10 µM | 4.13 µM |  |  |  |  | 
10 | Cc1cc(C(C)Nc2ccccc2C(=O)O)c2oc(C3CCN(C(=O)C4CC4)CC3)cc(=O)c2c1 (stereo not drawn) [Example 30, 2-((1-(2-(1-(cyclopropanecarbonyl)piperidin-4-yl)-6-methyl-4-oxo-4H-chromen-8-yl)ethyl)amino)benzoic acid] | > 10 µM | 4 µM | 1.87 µM |  |  |  |  | 
11 | Cc1cc([C@H](C)Nc2ccccc2C(=O)O)c2oc(-c3ccc4nn(C)cc4c3)cc(=O)c2c1 [Example 38A, (S)-2-((1-(6-methyl-2-(2-menthyl-2H-indazol-5-yl)-4-oxo-411-chromen-8-yl)ethyl)amino)benzoic acid] |  |  |  | > 10 µM | > 10 µM | > 10 µM |  | 
12 | Cc1cc([C@@H](C)Nc2ccccc2C(=O)O)c2oc(-c3ccc4nn(C)cc4c3)c(C)c(=O)c2c1 [Example 49A, (R)-2-((1-(3,6-dimethyl-2-(2-methyl-211-indazol-5-yl)-4-oxo-4H-chromen-8-yl)ethyl)amino)benzoic acid] |  |  |  | > 10 µM | 0.09 µM | 0.07 µM |  | 
13 | Cc1cc(C(C)Nc2ccccc2S(N)(=O)=O)c2oc(-c3ccc4nn(C)cc4c3)c(C)c(=O)c2c1 (stereo not drawn) [Example 131, 2-((1-(3,6-dimethyl-2-(2-methyl-2H-indazol-5-yl)-4-oxo-4H-chromen-8-yl)ethyl)amino)benzenesulfonamide] | > 10 µM |  |  |  |  |  | 0.059 µM | 0.055 µM
14 | CC(=O)N1CCN(c2ccc(-c3oc4c([C@@H](C)Nc5ccccc5C(=O)O)cc(C)cc4c(=O)c3C)cc2F)CC1 [Example 154, (R)-2-((1-(2-(4-(4-acetylpiperazin-1-yl)-3-fluorophenyl)-3,6-dimethyl-4-oxo-41H-chromen-8-yl)ethyl)amino)benzoic acid] | > 10 µM | 0.086 µM | 0.074 µM |  |  |  |  | 

Continued, in another order:

Row | IC50 ([1]; Homo sapiens) | IC50 [2, 4] | IC50 ([3]; Homo sapiens, T47D, 72 h) | Compound | IC50 [1] | IC50 [2, 5] | IC50 [3] | IC50 ([2]; Homo sapiens, MDA-MB-453, 72 h) | IC50 ([3]; Homo sapiens)
15 | > 10 µM | 2.49 µM | 1.98 µM | Cc1cc(C(C)Nc2ccccc2C(=O)O)c2oc(-c3cnn(CC(C)(C)O)c3)cc(=O)c2c1 (stereo not drawn) [Example 11, 2-((1-(2-(1-(2-hydroxy-2-methylpropyl)-1H-pyrazol-4-yl)-6-methyl-4-oxo-4H-chromen-8-yl)ethyl)amino)benzoic acid] |  |  |  |  | 
16 | > 10 µM | 6.3 µM | 3.2 µM | Cc1cc(C(C)Nc2ccccc2C(=O)O)c2oc(-c3ccc4c(c3)C(=O)N(C)C4)cc(=O)c2c1 (stereo not drawn) [Example 23, 2-((1-(6-methyl-2-(2-methyl-3-oxoisoindolin-5-yl)-4-oxo-4H-chromen-8-yl)ethyl)amino)benzoic acid] |  |  |  |  | 
17 | > 10 µM | 0.32 µM | 0.27 µM | Cc1cc(C(C)Nc2ccccc2C(=O)O)c2oc(-c3cc4ccccc4[nH]3)cc(=O)c2c1 (stereo not drawn) [Example 25, 2-((1-(2-(1H-indol-2-yl)-6-methyl-4-oxo-4H-chromen-8-yl)ethyl)amino)benzoic acid] |  |  |  |  | 
18 | > 10 µM | 0.83 µM | 0.66 µM | Cc1cc(C(C)Nc2ccccc2C(=O)O)c2oc(-c3cccs3)cc(=O)c2c1 (stereo not drawn) [Example 26, 2-((1-(6-methyl-4-oxo-2-(thiophen-2-yl)-4H-chromen-8-yl)ethyl)amino)benzoic acid] |  |  |  |  | 
19 | > 10 µM | 1.38 µM | 0.75 µM | Cc1cc(C(C)Nc2ccccc2C(=O)O)c2oc(-c3cccnc3)cc(=O)c2c1 (stereo not drawn) [Example 32, 2-((1-(6-methyl-4-oxo-2-(pyridin-3-yl)-4H-chromen-8-yl)ethyl)amino)benzoic acid] |  |  |  |  | 
20 | > 10 µM | 0.42 µM | 0.32 µM | Cc1cc(C(C)Nc2ccccc2C(=O)O)c2oc(-c3ccncc3)cc(=O)c2c1 (stereo not drawn) [Example 33, 2-((1-(6-methyl-4-oxo-2-(pyridin-4-yl)-4H-chromen-8-yl)ethyl)amino)benzoic acid] |  |  |  |  | 
21 | > 10 µM | 7.82 µM | 4.63 µM | Cc1cc(C(C)Nc2ccccc2C(=O)O)c2oc(-c3ccn(C)c(=O)c3)cc(=O)c2c1 (stereo not drawn) [Example 34, 2-((1-(6-methyl-2-(1-methyl-2-oxo-1,2-dihydropyridin-4-yl)-4-oxo-4H-chromen-8-yl)ethyl)amino)benzoic acid] |  |  |  |  | 
22 | > 10 µM | 0.57 µM | 0.5 µM | Cc1cc(C(C)Nc2ccccc2C(=O)O)c2oc(-c3ccc4ncccc4c3)cc(=O)c2c1 (stereo not drawn) [Example 35, 2-((1-(6-methyl-4-oxo-2-(quinolin-6-yl)-4H-chromen-8-yl)ethyl)amino)benzoic acid] |  |  |  |  | 
23 | > 10 µM | 0.8 µM | 0.42 µM | Cc1cc(C(C)Nc2ccccc2C(=O)O)c2oc(-c3ccc4c(cnn4C)c3)cc(=O)c2c1 (stereo not drawn) [Example 37, 2-((1-(6-methyl-2-(1-methyl-1H-indazol-5-yl)-4-oxo-4H-chromen-8-yl)ethyl)amino)benzoic acid] |  |  |  |  | 
24 | > 10 µM | 0.15 µM | 0.08 µM | Cc1cc(C(C)Nc2ccccc2C(=O)O)c2oc(-c3ccc4nn(C)cc4c3)cc(=O)c2c1 (stereo not drawn) [Example 38] |  |  |  |  | 
25 | > 10 µM | 2.49 µM | 1.98 µM | Cc1cc(C(C)Nc2ccccc2C(=O)O)c2oc(-c3cnoc3)cc(=O)c2c1 (stereo not drawn) [Example 39, 2-((1-(2-(isoxazol-4-yl)-6-methyl-4-oxo-4H-chromen-8-yl)ethyl)amino)benzoic acid] |  |  |  |  | 
26 | > 10 µM | 0.2 µM | 0.21 µM | Cc1cc(C(C)Nc2ccccc2C(=O)O)c2oc(-c3ccc(N4CCOCC4)cc3)cc(=O)c2c1 (stereo not drawn) [Example 42, 2-((1-(6-methyl-2-(4-morpholinophenyl)-4-oxo-4H-chromen-8-yl)ethyl)amino)benzoic acid] |  |  |  |  | 
27 | > 10 µM | 0.16 µM | 0.22 µM | Cc1cc(C(C)Nc2ccccc2C(=O)O)c2oc(-c3cc(C)c4nn(C)cc4c3)cc(=O)c2c1 (stereo not drawn) [Example 109, 2-((1-(2-(2,7-dimethyl-21-indazol-5-yl)-6-methyl-4-oxo-4H-chromen-8-yl)ethyl)amino)benzoic acid] |  |  |  |  | 
28 | > 10 µM | 0.089 µM | 0.058 µM | Cc1cc([C@@H](C)Nc2ccccc2C(=O)O)c2oc(-c3ccc(Cc4cnn(C)c4)cc3)c(C)c(=O)c2c1 [Example 151, 2-[[(1R)-1-[3,6-dimethyl-2-[4-[(1-methylpyrazol-4-yl)methyl]phenyl]-4-oxo-chromen-8-yl]ethyl]amino]benzoic acid] |  |  |  |  | 
